From patent US20220257631A1, “THERAPEUTIC RNA FOR OVARIAN CANCER” (BIONTECH SE, priority 2019, published 2022) come the findings set out here.

Series [1] can be described thus: Respiratory safety, plethysmography (LPT No. 30283). The following applies: positive control 30 mg/kg b.w.
Series [2] can be described thus: DOTMA biodistribution, LC/MS.
For series [3], the system named is antigen-specific T cells. The experiment in a line: IFN-γ ELISPOT of splenocytes of i.v. vaccinated A2/DR1 mice. The series is classed as in vivo. The following applies: 30 μg RNA(LIP) i.v., four to five vaccinations.
For series [4], the system named is CD8+ T cells of healthy donors. The experiment in a line: In vitro priming of CD8+ T cells with RBL005.2-transfected autologous mDCs, MHC-dextramer staining. The series is classed as cell-based, human. The following applies: three rounds of weekly stimulation.
Series [5] relates to K562-A2 cells. The series can be described thus: TCR specificity test, IFN-γ ELISPOT with K562-A2 cells. The series is classed as cell-based, human.
Series [6] deals with human DCs. The series can be described thus: IFN-γ secretion of antigen-specific CD8+ T cells co-incubated with RBL005.2-electroporated DCs (Bio-plex). It is filed as cell-based. As for the experimental part: Antigen-specific CD8^+ T cells were co-incubated with DCs transfected with 0.25, 1, 4, or 16 μg […] different amounts of RBL005.2. As negative controls only effectors, or DCs transfected with irrelevant antigen coding RNA were used. Columns indicate means of two donors and biological duplicates.
In addition, we exemplarily tested the ability of the WAREHOUSE RNA drug product RBL005.2 to generate surface-expressed MHC-class I epitopes after electroporation of the RNAs into human DCs. This was determined by co-incubation of the transfected DCs for 24 h with isolated human CD8^+ T cells equipped with the α- and β-chain of a T-cell receptor (TCR) specific for the HLA-A*0201-restricted epitope […] (CLDN691.99). Activation of the antigen-specific cells was analyzed by IFN-γ Bio-plex bead assay (Bio-Rad Laboratories) of the cell culture supernatants. To consider donor variability each of the test items was analyzed using two different donors. RNA of ATM quality was used. The experiments were carried out using up to 16 μg of the RNAs to electroporate the DCs (Study Report No: STR_21591_003).

For `CC(C[N+](C)(C)C)OC(N)=O.[Cl-]` (stereo not drawn) [Carbamyl-β-methylcholine chloride], in series [1], the Pulmonary parameters entry is “expected alterations”.
Take `CCCCCCCC/C=C\CCCCCCCCOCC(C[N+](C)(C)C)OCCCCCCCC/C=C\CCCCCCCC` (centres unmarked) [DOTMA, 1,2-di-O-octadecenyl-3-trimethylammonium propane]: the “Organ with highest DOTMA findings” value in series [2] (60 μg RNA, one or two injections, 24 h) was “highest DOTMA findings were in the spleen”. The DOTMA distribution entry in series [2] (single RNA(LIP), 26 μg DOTMA, up to 28 days) is “predominantly found in spleen and liver”. For the same molecule, the “Factor by which DOTMA is lower in other organs/tissues than spleen and liver” value in series [2] (single dose) is recorded as 10-50.
For “RBL008.1: beta-S-ARCA(D1)-hAg-Kozak-sec-GS-p53-GS-MITD-2hBgUTR-A30L70 mRNA, encodes human p53 (SEQ ID NO: 7)”, in series [3], the “Antigen-specific T-cell responses (IFN-γ ELISPOT)” value was “induced antigen-specific T-cell responses in vivo in mice expressing human HLA-molecules”.
On the same count and under the same terms, the same measure for “RBL012.1: beta-S-ARCA(D1)-hAg-Kozak-sec-GS-PRAME-GS-MITD-2hBgUTR-A30L70 mRNA, encodes human PRAME (SEQ ID NO: 11)”: “induced antigen-specific T-cell responses in vivo in mice expressing human HLA-molecules”.

B1: RBL005.2: beta-S-ARCA(D1)-hAg-Kozak-CLDN6-2hBgUTR-A30L70 mRNA, encodes human Claudin 6 (SEQ ID NO: 3) (nucleic acid)
chain: GGGCGAACUAGUAUUCUUCUGGUCCCCACAGACUCAGAGAGAACCCGCCACCAUGGCCUCUGCCGGAAUGCAGAUCCUGGGCGUGGUGCUGACCCUGCUGGGCUGGGUGAAUGGCCUGGUGAGCUGUGCCCUGCCCAUGUGGAAGGUGACAGCCUUCAUUGGCAACAGCAUUGUGGUGGCCCAGGUGGUGUGGGAGGGCCUGUGGAUGAGCUGUGUGGUGCAGAGCACAGGCCAGAUGCAGUGCAAGGUGUAUGACAGCCUGCUGGCCCUGCCUCAGGACCUCCAGGCCGCCAGAGCCCUGUGUGUGAUUGCCCUGCUGGUGGCCCUGUUUGGCCUGCUGGUGUACCUGGCUGGAGCCAAGUGCACCACCUGUGUGGAGGAGAAGGACAGCAAGGCCAGACUGGUGCUGACCUCUGGCAUUGUGUUUGUGAUCUCUGGCGUGCUGACCCUGAUCCCUGUGUGCUGGACAGCCCAUGCCAUCAUCAGAGACUUCUACAACCCUCUGGUGGCCGAGGCCCAGAAAAGAGAGCUGGGAGCCAGCCUGUACCUGGGCUGGGCCGCCUCUGGCCUUCUUCUGCUGGGAGGAGGACUGCUGUGCUGCACCUGCCCCUCUGGCGGCAGCCAGGGCCCCAGCCACUACAUGGCCAGAUACAGCACCUCUGCCCCUGCCAUCAGCAGAGGCCCUUCUGAGUACCCCACCAAGAACUAUGUGUGAGGAGGAUCCCCUCGAGAGCUCGCUUUCUUGCUGUCCAAUUUCUAUUAAAGGUUCCUUUGUUCCCUAAGUCCAACUACUAAACUGGGGGAUAUUAUGAAGGGCCUUGAGCAUCUGGAUUCUGCCUAAUAAAAAACAUUUAUUUUCAUUGCUGCGUCGAGAGCUCGCUUUCUUGCUGUCCAAUUUCUAUUAAAGGUUCCUUUGUUCCCUAAGUCCAACUACUAAACUGGGGGAUAUUAUGAAGGGCCUUGAGCAUCUGGAUUCUGCCUAAUAAAAAACAUUUAUUUUCAUUGCUGCGUCGAGACCUGGUCCAGAGUCGCUAGCAAAAAAAAAAAAAAAAAAAAAAAAAAAAAAGCAUAUGACUAAAAAAAAAAAAAAAAAAAAAAAAAAAAAAAAAAAAAAAAAAAAAAAAAAAAAAAAAAAAAAAAAAAAAA
modifications: beta-S-ARCA cap, poly(A); CLDN6 RNA
Turning to B1, the “CD8+ T cells binding HLA-A*02/RBL005.2 91-99 dextramer” value in series [4] is listed as 0.462%. For the same molecule, the “Recognition of RBL005.2-transfected K562-A2 cells by isolated TCR” value in series [5] is recorded as “specific recognition”. Besides, in series [3], the “Antigen-specific T-cell responses (IFN-γ ELISPOT)” value is recorded as “induced antigen-specific T-cell responses in vivo in mice expressing human HLA-molecules”. Besides, the “Dose dependency of IFN-γ production” value in series [6] (0.25, 1, 4, 16 μg RNA) was “clear dose dependency”. Also, the “IFN-γ production by antigen-specific CD8+ T cells” value in series [6] (up to 16 μg RNA electroporated, 24 h, two donors) is reported as “able to produce IFN-γ”.
